Assay results: patent US20260237072A1, “FUNCTIONAL RESPIRATORY IMAGING ANALYSIS OF SERALUTINIB FOR THE TREATMENT OF PULMONARY ARTERIAL HYPERTENSION (PAH)” (GB002, INC., priority 2023, published 2026)
Values joined by “and” are separate entries in the source; they are usually repeats but may differ in a detail not shown here. Identical values can stand only once.

Experiments:
PAH patients [1] = assay: Clinical study: change from baseline to week 24 in clinical parameters (PVR, MPAP, PAC, 6MWD, NTproBNP); format: in vivo, human; set-up: MPAP Change / 6MWD change / NTproBNP change: unit not given here
Description: (§1) A clinical study was undertaken to examine the effect of Seralutinib on pulmonary arterial blood vessel volume distribution in PAH patients. Seralutinib was administered twice daily (BID) for 24 weeks, via dry powder inhalation, to PAH patients (WHO Group I, functional class II or III). Thin-section, volumetric non-contrast chest CTs were obtained (at baseline and week 24, minimum of 64 slices), followed by automated pulmonary vascular segmentation to evaluate the reverse remodeling potential of seralutinib.
(§2) Baseline and Week 24 CTs were obtained in 19 subjects (7 receiving seralutinib, 12 receiving placebo), mean age 49±12 years, 18 were female, as presented in Tables 1 and 2. All subjects were receiving two or three approved PAH-specific medications.
(§3) Case study 2 was of a person with WHO functional class II idiopathic PAH+severe rheumatoid arthritis receiving approved PAH Triple Therapy (ERA+PDE-5i+PRA).

PAH patients [2] = assay: Clinical study: functional respiratory imaging (chest CT, automated pulmonary vascular segmentation) of pulmonary arterial blood vessel volume distribution; format: in vivo, human
Description: as §1
From the scans, paired inspiratory-expiratory high-resolution non-contrast computer tomography studies were performed and the lobar tissue, airways and vasculature were reconstructed. Vasculature volumes are provided as a total blood volume (BV), and as BVX values, which divide the pulmonary blood volume depending on the size vessel in which the blood is contained, wherein:
Blood vessel volumes (BVV) of pulmonary arteries with a CSA<5 mm^2 (BV5A) and >10 mm^2 (BV10A) were calculated, and the BV5A to BV10A ratio (BV510ARATIO) was used to express relative redistribution of pulmonary arterial blood vessel volume. Linear regression was used to model the treatment effect.
as §2, §3

[3] = individual PAH patient, baseline to week 24, BID dry powder inhalation
[4] = Case Study 2, baseline to week 24, lung images
[5] = treatment effect vs placebo, week 24, linear regression

COc1ccc(-c2cncc(N[C@@H](C)c3cccc(NC(=O)c4cncc(C)c4)c3)n2)cc1OC [Seralutinib, N-{3-[(1S)-1-{[6-(3,4-dimethoxyphenyl)pyrazin-2-yl]amino}ethyl]phenyl}-5-methylpyridine-3-carboxamide]
PVR coincident with arterial volume shifts (PAH patients [1]; Case Study 2, baseline to week 24): Improvement
6MWD change (PAH patients [1]; Case Study 2, week 24): −48
NTproBNP change (PAH patients [1]; Case Study 2, week 24): 41
PVR Change (PAH patients [1]; Case Study 2, week 24, PVR baseline 408): −159
MPAP Change (PAH patients [1]; [3]): −4 and −3 (2×) and −8 and 3 and −2
PAC Change (pulmonary arterial compliance) (PAH patients [1]; [3]): 0.65 and 0.24 and 0.85 and 0.31 and 0.11 and 0.32
PVR Change (PAH patients [1]; [3]): −159 and −11 and −52 and −235 and −139 and −171
BV5A/BV10A ratio (PAH patients [2]; [4]): Increase
Decrease in BV10APRA (PAH patients [2]; [4]): 8%
Increase in BV5APRA (PAH patients [2]; [4]): 6%
BV5A PRA (%)* (PAH patients [2]; Case Study 2, week 24): +5.6%
BV10A PRA (%)* (PAH patients [2]; Case Study 2, week 24): −7.7%
BV510A RATIO (PAH patients [2]; Case Study 2, week 24): +2.5
redistribution of pulmonary arterial blood vessel volume to more distal vessels (PAH patients [2]; subjects with PAH on dual or triple PAH therapies, seralutinib added): significant redistribution
BV5APRA regression model effect estimate (PAH patients [2]; [5]): 2.625
BV5PR regression model effect estimate (PAH patients [2]; [5]): 1.835
BV10APRA regression model effect estimate (PAH patients [2]; [5]): −2.711
BV10PR regression model effect estimate (PAH patients [2]; [5]): −2.180
BV510RATIO regression model effect estimate (PAH patients [2]; [5]): 0.843
BV510ARATIO regression model effect estimate (PAH patients [2]; treatment effect vs placebo, week 24, linear regression, 7 seralutinib, 12 placebo): 0.845
least squares mean difference value of the BV510ARatio (PAH patients [2]; vs placebo, 95% CI 0.105, 1.585, p-value 0.028): 0.845
BV510A Ratio in the seralutinib group compared to placebo (PAH patients [2]; week 24, p=0.028): significantly higher
